Values of other authors as cited in patent US20250134097A1, “PERSISTENT SANITIZER” (priority 2020, published 2025).

Legend:
microbes = details: benzalkonium chloride at 0.1-0.2%
Adenovirus = details: in vitro; concentration-dependent; includes non-enveloped virus

Benzalkonium chloride
antimicrobial activity (microbes): Broad antimicrobial activity
antiviral activity (Adenovirus): some antiviral activity including non-enveloped activity
